Data as given in PubChem BioAssay (NCI).
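Dose response: 5 concentrations. Exposure: 48 h. Format: 96-well plates. Endpoint: linear interpolation; highest concentration if not reached. The concentration for 50% growth inhibition is given as GI50. Definition used: TGI = concentration required for complete inhibition of growth.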

Assays:
Assay in all cases: DTP human tumour cell line panel, 48 h
OVCAR-8 ovarian = system: OVCAR-8 ovarian
OVCAR-3 ovarian = system: OVCAR-3 ovarian
SF-539 CNS = system: SF-539 CNS
CCRF-CEM leukemia = system: CCRF-CEM leukemia
TK-10 renal = system: TK-10 renal
OVCAR-4 ovarian = system: OVCAR-4 ovarian
IGROV1 ovarian = system: IGROV1 ovarian
SF-268 CNS = system: SF-268 CNS
PC-3 prostate = system: PC-3 prostate
MCF7 breast = system: MCF7 breast

| Structure (SMILES) | TGI (OVCAR-8 ovarian) [µM] | TGI (OVCAR-3 ovarian) [µM] | TGI (SF-539 CNS) [µM] | TGI (CCRF-CEM leukemia) [µM] | TGI (TK-10 renal) [µM] | TGI (OVCAR-4 ovarian) [µM] | TGI (IGROV1 ovarian) [µM] | TGI (SF-268 CNS) [µM] | TGI (PC-3 prostate) [µM] | TGI (MCF7 breast) [µM] | GI50 (OVCAR-8 ovarian) [µM] | GI50 (PC-3 prostate) [µM] | GI50 (OVCAR-3 ovarian) [µM] | GI50 (MCF7 breast) [µM] | GI50 (CCRF-CEM leukemia) [µM] | GI50 (TK-10 renal) [µM] | GI50 (OVCAR-4 ovarian) [µM] | GI50 (IGROV1 ovarian) [µM] | GI50 (SF-268 CNS) [µM] | GI50 (SF-539 CNS) [µM] |
| --- | --- | --- | --- | --- | --- | --- | --- | --- | --- | --- | --- | --- | --- | --- | --- | --- | --- | --- | --- | --- |
| C[Si](C)(C)C1(Sc2ccccc2)SCCCS1 | > 100 | > 100 | 75.2 | 77.8 | > 100 | > 100 | > 100 | > 100 | – | – | – | – | – | – | – | – | – | – | – | – |
| Cc1ccccc1S(=O)(=O)OC1NS(=O)(=O)c2ccccc21 (stereo not drawn) | > 100 | > 100 | > 100 | – | > 100 | > 100 | > 100 | > 100 | > 100 | > 100 | – | – | – | – | – | – | – | – | – | – |
| COc1ccc(S(=O)(=O)NNS(C)(=O)=O)cc1 | > 100 | – | > 100 | > 100 | > 100 | > 100 | > 100 | > 100 | – | – | – | – | – | – | – | – | – | – | – | – |
| CC(C)[C@H]1COC(=O)N1[C@@H]1C(=O)N([C@@H](CCC(=O)N2CCN(C3CCCC3)CC2)C(=O)N[C@@H]2CCCc3ccccc32)[C@@H]1/C=C/c1cccc(Br)c1 | 15.4 | 3.92 | – | 8.4 | 3.47 | 15 | 5.9 | 2.83 | 4.28 | 6.33 | 4.12 | 1.8 | 1.97 | 2.09 | 2.91 | 1.46 | 2.79 | 1.83 | 1.11 | – |
| CCCCCCN(CCCCCC)C(=O)Cc1c2n(c3ccccc13)Cc1ccccc1-2 | > 100 | > 100 | > 100 | 90.1 | > 100 | > 100 | – | > 100 | – | – | – | – | – | – | – | – | – | – | – | – |
| COc1ccc(-c2nnc(COc3ccc(C(=O)/C=C/c4ccco4)cc3)o2)cc1 | 10.1 | 3.95 | 3.63 | – | 6.25 | 26.6 | 4.38 | 8.25 | 11.8 | 3.28 | 3.04 | 3.33 | 1.95 | 1.39 | – | 2.81 | 12.8 | 2.08 | 2.76 | 1.8 |
| CC(=O)[C@@]12O[C@@H]1CC1C3CCC4=CC(O)CCC4(C)C3CCC12C (stereo partly drawn) | 82.3 | > 100 | > 100 | – | 56.9 | > 100 | > 100 | > 100 | > 100 | > 100 | 23.3 | 40.3 | 78.5 | > 100 | – | 15.9 | 23.2 | 31.8 | 83.5 | 39 |
| Cc1ccc(NC(=O)c2cc3cc(N=Nc4ccccc4C(=O)O)ccc3oc2=O)cc1 | > 100 | 74.2 | 98.5 | > 100 | > 100 | – | > 100 | – | – | – | – | – | – | – | – | – | – | – | – | – |
| CCOC(=O)CC(=O)ON(C)C(C)=O | > 100 | > 100 | > 100 | > 100 | > 100 | > 100 | > 100 | > 100 | – | – | – | – | – | – | – | – | – | – | – | – |
| c1ccc(COc2cccc3ccc[n+](Cc4ccccc4)c23)cc1 | – | – | > 100 | > 100 | 94.6 | 45.7 | 25.7 | > 100 | – | – | – | – | – | – | – | – | – | – | – | – |
| C/C(=N\NC(=S)NC(CCC(=O)O)C(=O)O)c1ccccn1 (stereo not drawn) | > 100 | > 100 | > 100 | > 100 | > 100 | > 100 | > 100 | > 100 | – | – | – | – | – | – | – | – | – | – | – | – |
| CN(C)c1ccc(/C=C(\NC(=O)c2ccccc2)c2nc3ncncc3[nH]2)cc1 | > 100 | > 100 | > 100 | > 100 | > 100 | > 100 | > 100 | > 100 | – | – | – | – | – | – | – | – | – | – | – | – |
| CC(C)=Cc1cc(C(=O)Nc2ccc(Cl)c(Cl)c2)nc(N)n1 | > 100 | > 100 | > 100 | – | > 100 | > 100 | > 100 | > 100 | – | – | – | – | – | – | – | – | – | – | – | – |
| C#CC1(O)CCC2C3CCc4cc(Oc5nc(F)nc(-c6c7ccccc7c7sc8ccccc8n67)n5)ccc4C3CC[C@@]21C (stereo partly drawn) | > 100 | > 100 | > 100 | > 100 | > 100 | > 100 | > 100 | > 100 | – | – | – | – | – | – | – | – | – | – | – | – |
| CCOC(=O)NC(=O)c1cn(CCCO)c(=O)[nH]c1=O | > 100 | > 100 | > 100 | > 100 | > 100 | > 100 | > 100 | > 100 | – | – | – | – | – | – | – | – | – | – | – | – |
| Cc1ccc(S(=O)(=O)Nc2ccccc2C(=O)c2ccc(C)c(C)c2)cc1 | > 100 | > 100 | > 100 | – | > 100 | > 100 | > 100 | > 100 | > 100 | > 100 | – | – | – | – | – | – | – | – | – | – |
| ClCc1cccc(Cn2cnc3ncnc(Cl)c32)c1 | 14.9 | 3.23 | 36 | 22.2 | 3.3 | 16 | 13.8 | 3.5 | 5.32 | – | 3.1 | 2.13 | 1.77 | – | 6.91 | 1.76 | 4.17 | 3.38 | 1.66 | 19.9 |
| [Cl-].[La+3].[O-]/N=C(\c1ccccc1)c1ccccn1.[O-]/N=C(\c1ccccc1)c1ccccn1.[O-]/N=C(\c1ccccc1)c1ccccn1 | > 100 | > 100 | > 85.7 | > 100 | > 100 | – | > 100 | > 100 | – | – | 46 | – | 39.2 | – | 25.7 | > 74.4 | – | 51.5 | 46 | 29.7 |
| O=C(/C=C\c1ccc(Cl)c(Cl)c1)c1ccc(Cl)cc1Cl | 38 | 35.7 | 37.7 | 64.4 | – | 88.7 | 49.8 | 55.1 | – | – | – | – | – | – | 4.62 | – | – | – | – | – |
